Our source for the IC50 values is US20200016159A1, “N3-CYCLICALLY SUBSTITUTED THIENOURACILS AND USE THEREOF” (Bayer Aktiengesellschaft, priority 2016, published 2020).

The IC50 is the concentration that inhibits the measured activity by half.

The assay concerns the target T1, human adenosine A2b receptor (Homo sapiens, UniProt P29275).
T1 sequence (P29275 1-332): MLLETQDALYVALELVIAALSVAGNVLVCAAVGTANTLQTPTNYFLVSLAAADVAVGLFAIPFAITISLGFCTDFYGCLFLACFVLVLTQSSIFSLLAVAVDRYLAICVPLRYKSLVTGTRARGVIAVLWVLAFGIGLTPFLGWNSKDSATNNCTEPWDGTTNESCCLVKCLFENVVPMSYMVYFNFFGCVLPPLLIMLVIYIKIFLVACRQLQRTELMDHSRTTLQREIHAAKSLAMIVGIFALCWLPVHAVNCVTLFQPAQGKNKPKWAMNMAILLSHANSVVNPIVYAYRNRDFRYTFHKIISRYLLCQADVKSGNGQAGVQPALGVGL
The experiment in a line: Cellular in vitro reporter gene test for A2b receptor activity (antagonism of NECA). It is filed as cell-based. Details: expressed in transfected cells; host or cells: CHO-K1 (Chinese hamster ovary) with CRE-luciferase reporter. To be noted: recombinant CHO-K1 cells, CRE-luciferase reporter, co-incubation with EC50 concentration of NECA, 3 hours. In short, it runs like this:
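CHO-K1 cells expressing recombinant human A2b receptor plus a CRE-driven firefly luciferase reporter. Compounds co-incubated with NECA at its same-day EC50 concentration; luminescence read 3 hours after NECA addition. IC50 values, sometimes means of several determinations rounded to two significant figures.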
For orientation: A reporter such as luciferase makes a cellular process visible.
As to `COCCn1c(=O)n(C2CC(C)(C)C2)c(=O)c2c(C)c(CN3CCNC3=NC#N)sc21` [Example 170, [1-{[3-(3,3-Dimethylcyclobutyl)-1-(2-methoxyethyl)-5-methyl-2,4-dioxo-1,2,3,4-tetrahydrothieno[2,3-d]pyrimidin-6-yl]methyl}imidazolidin-2-ylidene]cyanamide], the IC50 came to 8.6 nM. On to `Cc1c(Cn2nc[nH]c2=O)sc2c1c(=O)n([C@H]1C[C@@H]1C)c(=O)n2CC1CC(F)(F)C1` [Example 328, 1-[(3,3-Difluorocyclobutyl)methyl]-5-methyl-3-[(1S,2S)-2-methylcyclopropyl]-6-[(5-oxo-4,5-dihydro-1H-1,2,4-triazol-1-yl)methyl]thieno[2,3-d]pyrimidine-2,4(1H,3H)-dione], for which the half-maximal inhibitory concentration (IC50) was determined as 4.9 nM.

Consider `Cc1c(CN2CCNC2=O)sc2c1c(=O)n(C1CC1C)c(=O)n2CCC(F)(F)C(F)F` (racemic) [Example 245, 5-Methyl-3-(2-methylcyclopropyl)-6-[(2-oxoimidazolidin-1-yl)methyl]-1-(3,3,4,4-tetrafluorobutyl)thieno[2,3-d]pyrimidine-2,4(1H,3H)-dione], for which the IC50 amounted to 6.7 nM. For `Cc1c(CN2CCNC2=O)sc2c1c(=O)n(C1CC1)c(=O)n2C[C@H]1CCCO1` [Example 38, 3-Cyclopropyl-5-methyl-6-[(2-oxoimidazolidin-1-yl)methyl]-1-[(2R)-tetrahydrofuran-2-ylmethyl]thieno[2,3-d]pyrimidine-2,4(1H,3H)-dione], the IC50 came out at 33 nM. As for `Cc1c(CN2CCNC2=O)sc2c1c(=O)n(C1CC1C)c(=O)n2CCC(F)(F)F` (single isomer, unassigned) [Example 240, 5-Methyl-3-(2-methylcyclopropyl)-6-[(2-oxoimidazolidin-1-yl)methyl]-1-(3,3,3-trifluoropropyl)thieno[2,3-d]pyrimidine-2,4(1H,3H)-dione], the IC50 came out at 2.4 nM. Consider `Cc1c(Cn2nc[nH]c2=O)sc2c1c(=O)n(C1(C)CC1)c(=O)n2CC1CC1(F)F` (single isomer, unassigned) [Example 68, 1-[(2,2-Difluorocyclopropyl)methyl]-5-methyl-3-(1-methylcyclopropyl)-6-[(5-oxo-4,5-dihydro-1H-1,2,4-triazol-1-yl)methyl]thieno[2,3-d]pyrimidine-2,4(1H,3H)-dione], for which the IC50 was determined as 160 nM.

On to `Cc1c(CN2CCNC2=O)sc2c1c(=O)n([C@H]1C[C@@H]1C)c(=O)n2CC1CCC(F)(F)C1` (single isomer, unassigned) [Example 257], for which the IC50 worked out at 6.8 nM. Next, `Cc1c(CN2CCNC(=O)C2=O)sc2c1c(=O)n(C1CCCC1)c(=O)n2CCC(F)(F)F` [Example 187, 3-Cyclopentyl-6-[(2,3-dioxopiperazin-1-yl)methyl]-5-methyl-1-(3,3,3-trifluoropropyl)thieno[2,3-d]pyrimidine-2,4(1H,3H)-dione]: 19 nM. Regarding `Cc1c(CN2CCNC2=O)sc2c1c(=O)n(C1CC1C)c(=O)n2CCCC(F)(F)F` (racemic) [Example 242, 5-Methyl-3-(2-methylcyclopropyl)-6-[(2-oxoimidazolidin-1-yl)methyl]-1-(4,4,4-trifluorobutyl)thieno[2,3-d]pyrimidine-2,4(1H,3H)-dione], the IC50 was 2.1 nM. On to `CCCCn1c(=O)n([C@H]2C[C@@H]2C)c(=O)c2c(C)c(CN3CCNC3=O)sc21` [Example 230, 1-Butyl-5-methyl-3-[(1S,2S)-2-methylcyclopropyl]-6-[(2-oxoimidazolidin-1-yl)methyl]thieno[2,3-d]pyrimidine-2,4(1H,3H)-dione], for which the IC50 was found to be 1.3 nM. As for `COCCn1c(=O)n(C2CC(F)(F)C2)c(=O)c2c(C)c(CN3CCNC3=NC(=O)OC)sc21` [Example 127, Methyl [1-{[3-(3,3-difluorocyclobuty)-1-(2-methoxyethyl)-5-methyl-2,4-dioxo-1,2,3,4-tetrahydrothieno[2,3-d]pyrimidin-6-yl]methyl}imidazolidin-2-ylidene]carbamate], the IC50 was 10 nM.
